Experimental data: patent US11058661B2, “Compositions and methods for lowering triglycerides in a subject on concomitant statin therapy and having hsCRP levels of at least about 2 mg/L” (priority 2018, dated 2021)

Columns and labels:
[1] = system: subjects with Age-Associated Memory Impairment (safety population); assay: AAMI pilot study: safety and tolerability; type: in vivo, human
Protocol: All randomized subjects that received at least 1 dose of study medication were included in the Safety Population.
Safety evaluations were based on the safety population. Safety and tolerability were assessed in terms of AEs, vital signs, 12-lead ECG, clinical laboratory data, medical history, and study drug compliance. Safety and tolerability data were presented by treatment group.

[2] = system: statin-treated patients with fasting TG ≥200 and <500 mg/dL and baseline hsCRP ≥2.0 mg/L; assay: ANCHOR post-hoc subgroup: lipid parameters, lipoproteins, markers of oxidation and inflammation; type: in vivo, human; settings: for reduction of TG compared with placebo: printed as a reduction
Protocol: A multi-center, placebo-controlled, randomized, double-blind, 12-week study is performed to evaluate the efficacy and safety of >96% E-EPA in patients with fasting triglyceride levels ≥200 mg/dl and <500 mg/dl despite statin therapy (the mean of two qualifying entry values needs to be ≥185 mg/dl and at least one of the values needs to be ≥200 mg/dl). The primary objective of the study is to determine the efficacy of >96% E-EPA 2 g daily and 4 g daily, compared to placebo, in lowering fasting TG levels in patients with high risk for cardiovascular disease and with fasting TG levels ≥200 mg/dL and <500 mg/dL, despite treatment to LDL-C goal on statin therapy.
The population for this study is men and women >18 years of age with a body mass index ≤45 kg/m^2 with fasting TG levels greater than or equal to 200 mg/dl and less than 500 mg/dl and on a stable does of statin therapy (with or without ezetimibe). The statin must be atorvastatin, rosuvastatin or simvastatin. The dose of statin must be stable for ≥4 weeks prior to the LDL-C/TG baseline qualifying measurement for randomization. The statin dose will be optimal such that the patients are at their LDL-C goal at the LDL-C/TG baseline qualifying measurements. The same statin at the same dose will be continued until the study ends.
At the end of the 4-week diet and lifestyle stabilization period or the 6-week diet and stabilization and washout period, eligible patients will enter the 2-week LDL-C and TG qualifying period and will have their fasting LDL-C and TG levels measured at Visit 2 (Week-2) and Visit 3 (Week-1). Eligible patients must have an average fasting LDL-C level ≥40 mg/dL and <100 mg/dL and an average fasting TG level ≥200 mg/dL and <500 mg/dL to enter the 12-week double-blind treatment period. The LDL-C and TG levels for qualification will be based on the average (arithmetic mean) of the Visit 2 (Week-2) and Visit 3 (Week-1) values. If a patient's average LDL-C and/or TG levels from Visit 2 and Visit 3 fall outside the required range for entry into the study, an additional fasting lipid profile can be collected 1 week later at Visit 3.1. If a third sample is collected at Visit 3.1, entry into the study will be based on the average (arithmetic mean) of the values from Visit 3 and Visit 3.1.
After confirmation of qualifying fasting LDL-C and TG values, eligible patients will enter a 12-week, randomized, double-blind treatment period. At Visit 4 (Week 0), patients will be randomly assigned to 1 of the following treatment groups: • >96% E-EPA 2 g daily, • >96% E-EPA 4 g daily, or • Placebo.
>96% E-EPA is provided in 1 g liquid-filled, oblong, gelatin capsules. The matching placebo capsule is filled with light liquid paraffin and contains 0 g of >96% E-EPA. >96% E-EPA capsules are to be taken with food (i.e. with or at the end of a meal).
During the double-blind treatment period, patients will take 2 capsules (>96% E-EPA or matching placebo) in the morning and 2 capsules in the evening for a total of 4 capsules per day. • Patients in the >96% E-EPA 2 g/day treatment group will receive 1>96% E-EPA 1 g capsule and 1 matching placebo capsule in the morning and in the evening. • Patients in the >96% E-EPA 4 g/day treatment group will receive 2>96% E-EPA 1 g capsules in the morning and evening.
For TG, TC, HDL-C, LDL-C, calculated non-HDL-C, and VLDL-C, baseline will be defined as the average of Visit 4 (Week 0) and the preceding lipid qualifying visit (either Visit 3 [Week-1] or if it occurs, Visit 3.1) measurements. Baseline for all other efficacy parameters will be the Visit 4 (Week 0) measurement.
For TG, TC, HDL-C, LDL-C, calculated non-HDL-C, and VLDL-C, Week 12 endpoint will be defined as the average of Visit 6 (Week 11) and Visit 7 (Week 12) measurements.
Week 12 endpoint for all other efficacy parameters will be the Visit 7 (Week 12) measurement. […]

[3] = 4 g/day vs placebo, baseline to week 12, Hodges-Lehmann median
[4] = 4 g/day vs placebo, baseline to week 12, Hodges-Lehmann median, listed as EPA-E
[5] = 4 g/day, baseline to week 12, median

`CC/C=C\C/C=C\C/C=C\C/C=C\C/C=C\CCCC(=O)OCC` [Icosapent Ethyl, ethyl eicosapentaenoate] was tested, and the “subjects with nausea Probably Related to the study drug” value ([1]; 1 g) was “One”, the “subjects with nausea Possibly Related to the study drug” value (“subjects with nausea Possibly Related” below) ([1]; 1 g cohort) was “two” and the “subjects with nausea Possibly Related” value ([1]; 2 g cohort) was “one”. For the same compound, the “subjects discontinued due to TEAEs” value ([1]; 2 g group) was 2 subjects, the SAE reported ([1]; 2 g group, judged unrelated to study drug) was “One” and the “subjects with diarrhea Probably Related to the study drug” value ([1]; 4 g) was “Another subject”. For the same compound, the “subjects with nausea Possibly Related” value ([1]; 4 g cohort) was “two”, the TEAEs reported ([1]; all ethyl-EPA treatment groups, 6 weeks) was 105 events and the “TEAEs Definitely Related to the study drug” value ([1]; all groups) was “No TEAEs”. The “deaths during the study” value ([1]; all groups) was “no deaths”, the “Apo B Median Difference in % Change From Baseline vs Placebo” value [2, 3] was −7.4% and the “Apo C-III Median Difference in % Change From Baseline vs Placebo” value [2, 3] was −16.0%. The “HDL-C Median Difference in % Change From Baseline vs Placebo” value [2, 3] was −5.2%, the “ICAM-1 Median Difference in % Change From Baseline vs Placebo” value [2, 3] was “+1.1%” and the “IL-6 Median Difference in % Change From Baseline vs Placebo” value [2, 3] was −4.2%. For the same compound, the “LDL-C Median Difference in % Change From Baseline vs Placebo” value [2, 3] was −5.0%, the “Lp-PLA2 Median Difference in % Change From Baseline vs Placebo” value [2, 3] was −19.6% and the “RLP-C Median Difference in % Change From Baseline vs Placebo” value [2, 3] was −23.0%. For the same compound, the “TC Median Difference in % Change From Baseline vs Placebo” value [2, 3] was −11.1%, the “TG Median Difference in % Change From Baseline vs Placebo” value [2, 3] was −19.9% and the “VLDL-C Median Difference in % Change From Baseline vs Placebo” value [2, 3] was −21.0%. The “VLDL-TG Median Difference in % Change From Baseline vs Placebo” value [2, 3] was −22.9%, the “Apo C-III Median Difference in % Change From Baseline vs Placebo” value [2, 4] was −16% and the “TG Median Difference in % Change From Baseline vs Placebo” value [2, 4] was −20%. For the same compound, the “hsCRP Median Difference in % Change From Baseline vs Placebo” value [2, 4] was −17.9%, the “Apo B Change From Baseline, %” value [2, 5] was −0.5% and the “Apo C-III Change From Baseline, %” value [2, 5] was −7.7%. The “HDL-C Change From Baseline, %” value [2, 5] was −2.1%, the “ICAM-1 Change From Baseline, %” value [2, 5] was “+3.3%” and the “IL-6 Change From Baseline, %” value [2, 5] was −1.6%. For the same compound, the “LDL-C Change From Baseline, %” value [2, 5] was “+2.8%”, the “Lp-PLA2 Change From Baseline, %” value [2, 5] was −13.3% and the “Non-HDL-C Change From Baseline, %” value [2, 5] was −4.5%. The “Ox-LDL Change From Baseline, %” value [2, 5] was −2.9%, the “RLP-C Change From Baseline, %” value [2, 5] was −26.3% and the “TC Change From Baseline, %” value [2, 5] was −2.6%. For the same compound, the “VLDL-C Change From Baseline, %” value [2, 5] was −11.8%, the “hsCRP Change From Baseline, %” value [2, 5] was −10.5% and the “reduction of TG compared with placebo” value [2, 5] was 19.9%. The “reduction of TG compared with placebo” value ([2]; 4 g/day, baseline to week 12, median, listed as EPA-E) was “about 19.9%”, the “Apo B End of Treatment” value ([2]; 4 g/day, week 12, median) was 93.5 mg/dL and the “Apo C-III End of Treatment” value ([2]; 4 g/day, week 12, median) was 14.0 mg/dL. For the same compound, the Apo C-III End of Treatment (Table 3) ([2]; 4 g/day, week 12, median) was 14 mg/dL, the “HDL-C End of Treatment” value ([2]; 4 g/day, week 12, median) was 36.0 mg/dL and the “ICAM-1 End of Treatment” value ([2]; 4 g/day, week 12, median) was 300.5 ng/mL. The “IL-6 End of Treatment” value ([2]; 4 g/day, week 12, median) was 2.8 pg/mL, the “LDL-C End of Treatment” value ([2]; 4 g/day, week 12, median) was 83.5 mg/dL and the “Lp-PLA2 End of Treatment” value ([2]; 4 g/day, week 12, median) was 163.0 ng/mL. The “Non-HDL-C End of Treatment” value ([2]; 4 g/day, week 12, median) was 125.0 mg/dL, the “Ox-LDL End of Treatment” value ([2]; 4 g/day, week 12, median) was 54.1 U/L and the “TC End of Treatment” value ([2]; 4 g/day, week 12, median) was 166.0 mg/dL. For the same compound, the “VLDL-C End of Treatment” value ([2]; 4 g/day, week 12, median) was 38.0 mg/dL, the “VLDL-TG End of Treatment” value ([2]; 4 g/day, week 12, median) was 154.5 mg/dL and the “hsCRP End of Treatment” value ([2]; 4 g/day, week 12, median) was 3.7 mg/L. The “TG End of Treatment” value ([2]; 4 g/day, week 12, median, fasting) was 220.8 mg/dL.
